Experimental data taken from patent US12661355B2, “Compounds and methods for inducing UCP1 expression” (The Regents of the University of California, priority 2020, dated 2026).

Legend:
Ucp1 = assay: Gene expression by qPCR in primary brown adipocytes; format: cell-based, mouse; details: for expression of markers of brown adipocyte identity, mitochondrial function and fatty acid oxidation genes / endogenous Ucp1 expression: 10 μM; for endogenous Ucp1 expression: primary mouse brown adipocytes
Procedure: Primary brown adipocytes were isolated according to known methods. An established mouse brown adipocyte cell line was obtained from Dr. Bruce Spiegelman (Dana-Farber Cancer Institute, Boston, USA). To differentiate primary and immortalized brown adipocytes, cells were grown until confluency in DMEM containing 10% FBS, 25 mM glucose 1 mM pyruvate, 2 mM glutamine, 20 nM insulin, 1 nM T3, and antibiotics. Once confluent (day 0), differentiation was induced by supplementing the medium with 0.5 mM IBMX, 0.5 μM dexamethasone, and 0.125 mM indomethacin, for 2 days. Differentiation was continued in the original medium (without IBMX, dexamethasone and indomethacin) for 7-10 days.
RNA levels were measured by qPCR according to known methods. Briefly, RNA was extracted with TRIzol (Invitrogen) and reverse transcribed with iScript (Bio-Rad). Real-time PCR analysis was performed with a CFX Connect (Bio-Rad).
Mouse RNA levels were measured by qPCR according to known methods. Data were normalized to B2m and Tbp reference genes. Human RNA was extracted using an RNA Mini Plus kit (Zymo) and gene expression determined by Taqman assay. The 1-step qPCR was run on a QuantStudio 12K Flex Real Time PCR System (ThermoFisher) using the following protocol: 50° C. for 5 minutes, 95° C. for 20 seconds, 40 cycles of 95° C. for 15 seconds and 60° C. for 60 seconds. Data were normalized to PPIA and PSMB2 reference genes. For global gene expression analysis, RNA isolated from brown adipocytes treated with compounds as indicated (four biological replicates) was hybridized to Illumina mouse Ref 8 V2.0 bead chips at the University of California, Los Angeles Neuroscience Genomics Core as previously described. Data were processed with GenomeStudio V2011.1 using the quantile normalization, background subtraction, and a present call of P<0.05.

[1] = system: immortalized brown adipocytes; assay: Cellular respiration (Seahorse) in immortalized brown adipocytes; format: cell-based, mouse; details: 10 μM
Procedure: Cellular respiration was measured using a Seahorse XF24 or XF96 analyzer (Agilent) following known protocols Immortalized brown adipocytes were differentiated in 6-well plates and replated in the Seahorse XF24 plates at a density of 50,000 cells per well using trypsin and collagenase type II. Cells were treated with vehicle (DMSO) or compounds for 18-24 h. Oxygen consumption rates were obtained before and after the sequential injection of 0.75 μM oligomycin, 0.5 μM FCCP, and 0.75 μM rotenone/myxothiazol. Results were normalized to total protein. For human white adipocytes, cells were cultured as described above and differentiated in XF96 microplates. DMSO or Z160 (10 μM) was added at day 17 and for 4 days. Oxygen consumption rates were measured before and after the sequential injection of 1 μM oligomycin, 1 μM FCCP, and 0.5 μM rotenone/antimycin A. For these cells, results were normalized to cell count determined by nuclei fluorescent staining with Hoescht staining imaged on Cytation 5 Imaging Reader and analysis with Gen5 software (BioTek). For both mouse and human cell lines, mitochondrial respiration was calculated by subtracting the non-mitochondrial respiration present after the last injection. Uncoupled respiration corresponds to the respiration difference between oligomycin and the last injections. Maximal respiration was determined after FCCP injection.

[2] = molecular target: T1, AKAP1 and the PKA subunits (Mus musculus, UniProt O08715); assay: Co-immunoprecipitation of PKA C-α and PKA RII-β with AKAP1; format: cell-based; details: brown adipocytes, 10 μM for 7 h
T1 construct: Immortalized brown adipocyte cells were differentiated for 10 days and treated with 10 μM AST070 or Z160 for 7 h; endogenous in cells; host or cells: immortalized mouse brown adipocytes
Procedure: Immortalized brown adipocyte cells were differentiated for 10 days and treated with 10 μM AST070 or Z160 for 7 h. Cells were lysed in 150 mM NaCl, 50 mM Tris pH 7.5, 1% Nonidet P40, 0.5% Na-deoxycholate containing protease and phosphatase inhibitors. Cell lysates were incubated overnight at 4° C. with 2 μl of anti-AKAP1 antibody. Twenty microliter of Protein A/G PLUS agarose beads (Santa Cruz Biotechnologies) were added for 2 h at 4° C. After a initial wash (500 mM NaCl, 50 mM Tris pH 7.5, 0.1% Nonidet P40, 0.05% Na-deoxycholate) and a final wash (10 mM Tris pH 7.5, 0.1% Nonidet P40, 0.05% Na-deoxycholate), proteins were eluted from the beads with 1× loading buffer and 2% β-mercaptoethanol, boiled for 10 min and analyzed by Western blot. To avoid detecting the IgG heavy chain, TidyBlot Western Blot reagent:HRP (Bio-Rad) at 1:100 was used as secondary antibody to reveal the PKA subunits from the co-immunoprecipitation blot.
AKAP1 is known to localize PKA to the surface of mitochondria and to relay cAMP signaling for mitochondrial functions. Inspired by this information, an inquiry as to whether treatment with the reported compounds could alter the binding of AKAP1 to mitochondria was undertaken. Analysis began by treating brown adipocytes with Z160 and isolated mitochondria at different times. […]

In the case of O=C(CSc1nc2ccccc2c(=O)[nH]1)Nc1ccc2c(c1)OCCO2 [AST070, N-(2,3-dihydro-1,4-benzodioxin-6-yl)-2-[(4-oxo-3,4-dihydroquinazolin-2-yl)sulfanyl]acetamide], the “expression of markers of brown adipocyte identity, mitochondrial function and fatty acid oxidation genes” value (Ucp1; primary brown adipocytes) is reported as “promoted expression”, the “endogenous Ucp1 expression” value (Ucp1) is reported as 29 fold and the maximal respiration [1] is reported as “significantly elevated”. The mitochondrial respiration [1] was “increased”, the uncoupled respiration [1] was “increased” and the “signal for PKA subunit precipitation by AKAP1” value [2] was “slightly enhanced”.
COc1ccc(NC(=O)CSc2nc3ccccc3c(=O)[nH]2)c(OC)c1 [Z160] was tested, and the “expression of markers of brown adipocyte identity, mitochondrial function and fatty acid oxidation genes” value (Ucp1; primary brown adipocytes) was “promoted expression”, the “expression of lipolytic enzymes (Atgl, Hsl) and FGF21 at the mRNA level” value (Ucp1; primary brown adipocytes, 10 μM overnight) was “increased expression” and the “endogenous Ucp1 expression” value (Ucp1) was 62 fold. The maximal respiration [1] was “showed the same trend”, the mitochondrial respiration [1] was “increased” and the uncoupled respiration [1] was “increased”. For the same molecule, the “signal for PKA subunit precipitation by AKAP1” value [2] was “slightly enhanced”.
